Laboratory results taken from US6914045B2, “Glycopeptide antibiotics” (Wyeth Holdings Corporation, priority 2001, dated 2005).
Converted amounts (≈) assume the structure as drawn.

Experiments:
Assay in all cases: in vitro antibacterial evaluation, MIC by broth dilution
Assay type in all cases: cell-based
[1] = tested on: Streptococcus sp.
In short: (§1)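 Read-out: the lowest concentration at which the test strain fails to grow. Serial dilutions (64-0.06 μg/mL) in Muller-Hinton II […], 5×10^5 CFU/mL inoculum, NCCLS M7-A2 procedure.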

[2] = tested on: Staphylococcus sp.; conditions: broth dilution, 18 hours at 35° C.
In short: as §1

[3] = tested on: Enterococcus sp.
In short: as §1

[4] = tested on: Escherichia coli
In short: as §1

[5] = Streptococcus agalactiae (GC 4564); broth dilution, 18 hours at 35° C.
[6] = Streptococcus pyogenes (ID-3187); broth dilution, 18 hours at 35° C.
[7] = Enterococcus avium (GC 4558); broth dilution, 18 hours at 35° C.
[8] = Enterococcus faecalis (ATCC 29212); broth dilution, 18 hours at 35° C.
[9] = Enterococcus faecalis (GC 2242); broth dilution, 18 hours at 35° C.
[10] = Enterococcus faecalis (GC 4552); broth dilution, 18 hours at 35° C.
[11] = Enterococcus faecalis (GC 4553); broth dilution, 18 hours at 35° C.
[12] = Enterococcus faecalis (GC 4554); broth dilution, 18 hours at 35° C.
[13] = Enterococcus faecium (GC 2243); broth dilution, 18 hours at 35° C.
[14] = Enterococcus faecium (GC 4556); broth dilution, 18 hours at 35° C.
[15] = Enterococcus faecium (GC 4557); broth dilution, 18 hours at 35° C.

## CCCCCCCC1OCC2OC(OC3C(CO)OC(Oc4ccc(CC5NC(=O)C(C(C)c6ccccc6)NC(=O)CNC(=O)C(CO)NC(=O)C(C(O)C6CNC(=N)N6C6OC(CO)C(O)C(O)C6O)NC(=O)C(C(O)C6CNC(=N)N6)NC5=O)cc4)C(O)C3O)C(O)C(O)C2O1 (stereo not drawn) [Example 109, Cyclo[glycyl-β-methylphenylalanyl-O-[4-O-(4,6-O-octylidenehexopyranosyl)hexopyranosyl]-tyrosyl-3-(2-iminoimidazolidin-4-yl)seryl-3-(3-hexopyranosyl-2-iminoimidazolidin-4-yl)-serylseryl]]
[1]; [5]
  MIC Streptococcus agalactiae (GC 4564): <0.5 µg/mL
[1]; Streptococcus pneumoniae (GC 4565); broth dilution, 18 hours at 35° C.
  MIC Streptococcus pneumoniae (GC 4565): <0.5 µg/mL
[1]; [6]
  MIC Streptococcus pyogenes (ID-3187): <0.5 µg/mL
[1]; broth dilution, 18 hours at 35° C.; strain GC 4564
  MIC Streptococcus agalactiae (GC 4564): <0.5 µg/mL
[1]; broth dilution, 18 hours at 35° C.; strain GC 4565
  MIC Streptococcus pneumoniae (GC 4565): <0.5 µg/mL
[1]; broth dilution, 18 hours at 35° C.; strain ID-3187
  MIC Streptococcus pyogenes (ID-3187): <0.5 µg/mL
[2]
  MIC Coagulase Negative Staphylococcus (GC 4547): 1 µg/mL (≈ 0.712 µM)
  MIC Coagulase Negative Staphylococcus (GC 4548): <0.5 µg/mL
  MIC Coagulase Negative Staphylococcus (GC 4549): 1 µg/mL (≈ 0.712 µM)
  MIC Coagulase Negative Staphylococcus (GC 4551): 1 µg/mL (≈ 0.712 µM)
  MIC Coagulase Negative Staphylococcus (ID-3941): 1 µg/mL (≈ 0.712 µM)
  MIC Staphylococcus aureus (ATCC 29213): 1 µg/mL (≈ 0.712 µM)
  MIC Staphylococcus aureus (GC 1131): 1 µg/mL (≈ 0.712 µM)
  MIC Staphylococcus aureus (GC 4541): 1 µg/mL (≈ 0.712 µM)
  MIC Staphylococcus aureus (GC 4542): 1 µg/mL (≈ 0.712 µM)
  MIC Staphylococcus aureus (GC 4544): 1 µg/mL (≈ 0.712 µM)
  MIC Staphylococcus aureus (GC 4545): 1 µg/mL (≈ 0.712 µM)
  MIC Staphylococcus aureus-SMITH (GC 4543): 1 µg/mL (≈ 0.712 µM)
  MIC Staphylococcus haemolyticus (GC 4546): 1 µg/mL (≈ 0.712 µM)
[2]; inoculum 5×10^5 CFU/mL, strain GC 1131
  MIC Staphylococcus aureus (GC 1131): 1 µg/mL (≈ 0.712 µM)
[2]; strain ATCC 29213
  MIC Staphylococcus aureus (ATCC 29213): 1 µg/mL (≈ 0.712 µM)
[2]; strain GC 4541
  MIC Staphylococcus aureus (GC 4541): 1 µg/mL (≈ 0.712 µM)
[2]; strain GC 4542
  MIC Staphylococcus aureus (GC 4542): 1 µg/mL (≈ 0.712 µM)
[2]; strain GC 4544
  MIC Staphylococcus aureus (GC 4544): 1 µg/mL (≈ 0.712 µM)
[2]; strain GC 4545
  MIC Staphylococcus aureus (GC 4545): 1 µg/mL (≈ 0.712 µM)
[2]; strain GC 4546
  MIC Staphylococcus haemolyticus (GC 4546): 1 µg/mL (≈ 0.712 µM)
[2]; strain GC 4547
  MIC Coagulase Negative Staphylococcus (GC 4547): 1 µg/mL (≈ 0.712 µM)
[2]; strain GC 4548
  MIC Coagulase Negative Staphylococcus (GC 4548): <0.5 µg/mL
[2]; strain GC 4549
  MIC Coagulase Negative Staphylococcus (GC 4549): 1 µg/mL (≈ 0.712 µM)
[2]; strain GC 4551
  MIC Coagulase Negative Staphylococcus (GC 4551): 1 µg/mL (≈ 0.712 µM)
[2]; strain ID-3941
  MIC Coagulase Negative Staphylococcus (ID-3941): 1 µg/mL (≈ 0.712 µM)
[2]; strain SMITH GC 4543
  MIC Staphylococcus aureus-SMITH (GC 4543): 1 µg/mL (≈ 0.712 µM)
[3]; [7]
  MIC Enterococcus avium (GC 4558): 2 µg/mL (≈ 1.42 µM)
[3]; [8]
  MIC Enterococcus faecalis (ATCC 29212): 2 µg/mL (≈ 1.42 µM)
[3]; [9]
  MIC Enterococcus faecalis (GC 2242): 2 µg/mL (≈ 1.42 µM)
[3]; [10]
  MIC Enterococcus faecalis (GC 4552): 2 µg/mL (≈ 1.42 µM)
[3]; [11]
  MIC Enterococcus faecalis (GC 4553): 2 µg/mL (≈ 1.42 µM)
[3]; [12]
  MIC Enterococcus faecalis (GC 4554): 2 µg/mL (≈ 1.42 µM)
[3]; [13]
  MIC Enterococcus faecium (GC 2243): 1 µg/mL (≈ 0.712 µM)
[3]; [14]
  MIC Enterococcus faecium (GC 4556): 2 µg/mL (≈ 1.42 µM)
[3]; [15]
  MIC Enterococcus faecium (GC 4557): 1 µg/mL (≈ 0.712 µM)
[3]; broth dilution, 18 hours at 35° C.; strain ATCC 29212
  MIC Enterococcus faecalis (ATCC 29212): 2 µg/mL (≈ 1.42 µM)
[3]; broth dilution, 18 hours at 35° C.; strain GC 2242
  MIC Enterococcus faecalis (GC 2242): 2 µg/mL (≈ 1.42 µM)
[3]; broth dilution, 18 hours at 35° C.; strain GC 2243
  MIC Enterococcus faecium (GC 2243): 1 µg/mL (≈ 0.712 µM)
[3]; broth dilution, 18 hours at 35° C.; strain GC 4552
  MIC Enterococcus faecalis (GC 4552): 2 µg/mL (≈ 1.42 µM)
[3]; broth dilution, 18 hours at 35° C.; strain GC 4553
  MIC Enterococcus faecalis (GC 4553): 2 µg/mL (≈ 1.42 µM)
[3]; broth dilution, 18 hours at 35° C.; strain GC 4554
  MIC Enterococcus faecalis (GC 4554): 2 µg/mL (≈ 1.42 µM)
[3]; broth dilution, 18 hours at 35° C.; strain GC 4556
  MIC Enterococcus faecium (GC 4556): 2 µg/mL (≈ 1.42 µM)
[3]; broth dilution, 18 hours at 35° C.; strain GC 4557
  MIC Enterococcus faecium (GC 4557): 1 µg/mL (≈ 0.712 µM)
[3]; broth dilution, 18 hours at 35° C.; strain GC 4558
  MIC Enterococcus avium (GC 4558): 2 µg/mL (≈ 1.42 µM)
[4]; 18 hours at 35° C., strain ATCC 25922
  MIC Escherichia coli (ATCC 25922): 16 µg/mL (≈ 11.4 µM)

## CC(c1ccccc1)C1NC(=O)CNC(=O)C(CO)NC(=O)C(C(O)C2CNC(=N)N2C2OC(CO)C(O)C(O)C2O)NC(=O)C(C(O)C2CNC(=N)N2)NC(=O)C(Cc2ccc(OC3OC(CO)C(OC4OC5COC(c6ccc(C(C)(C)C)cc6)OC5C(O)C4O)C(O)C3O)cc2)NC1=O (centres unmarked) [Example 147]
[1]; [5]
  MIC Streptococcus agalactiae (GC 4564): <0.12 µg/mL
[1]; Streptococcus pyogenes (GC 4563); broth dilution, 18 hours at 35° C.
  MIC Streptococcus pyogenes (GC 4563): >0.12 µg/mL
[1]; [6]
  MIC Streptococcus pyogenes (ID-3187): <0.5 µg/mL
[1]; strain GC 4563; broth dilution, 18 hours at 35° C.
  MIC Streptococcus pyogenes (GC 4563): >0.12 µg/mL
[1]; strain GC 4564; broth dilution, 18 hours at 35° C.
  MIC Streptococcus agalactiae (GC 4564): <0.12 µg/mL
[1]; strain ID-3187; broth dilution, 18 hours at 35° C.
  MIC Streptococcus pyogenes (ID-3187): <0.5 µg/mL
[2]; strain GC 3051
  MIC Staphylococcus aureus (GC 3051): 0.5 µg/mL (≈ 0.347 µM)
[2]; strain GC 3053
  MIC Staphylococcus aureus (GC 3053): 0.5 µg/mL (≈ 0.347 µM)
[2]; strain GC 4542
  MIC Staphylococcus aureus (GC 4542): 0.5 to 1 µg/mL
[2]; strain GC 4543
  MIC Staphylococcus aureus-SMITH (GC 4543): 0.5 to 1 µg/mL
[2]; strain GC 4544
  MIC Staphylococcus aureus (GC 4544): 0.5 to 1 µg/mL
[2]; strain GC 4545
  MIC Staphylococcus aureus (GC 4545): 0.5 to 1 µg/mL
[2]; strain GC 4546
  MIC Staphylococcus haemolyticus (GC 4546): 1 to 2 µg/mL
[2]; strain GC 4547
  MIC Coagulase Negative Staphylococcus (GC 4547): 1 to 2 µg/mL
[2]; strain GC 4548
  MIC Coagulase Negative Staphylococcus (GC 4548): <0.5 to 1 µg/mL
[2]; strain GC 4549
  MIC Coagulase Negative Staphylococcus (GC 4549): <0.5 to 1 µg/mL
[2]; strain GC 4551
  MIC Coagulase Negative Staphylococcus (GC 4551): 1 µg/mL (≈ 0.695 µM)
[2]; strain GC 6257
  MIC Coagulase Negative Staphylococcus (GC 6257): 2 µg/mL (≈ 1.39 µM)
[2]; strain ID-3941
  MIC Coagulase Negative Staphylococcus (ID-3941): 1 µg/mL (≈ 0.695 µM)
[2]; strain SMITH GC 4543
  MIC Staphylococcus aureus-SMITH (GC 4543): 0.5 to 1 µg/mL
[3]; [7]
  MIC Enterococcus avium (GC 4558): 0.5 to 2 µg/mL
[3]; [8]
  MIC Enterococcus faecalis (ATCC 29212): 0.5 to 2 µg/mL
[3]; [9]
  MIC Enterococcus faecalis (GC 2242): 0.5 to 1 µg/mL
[3]; Enterococcus faecalis (GC 2691); broth dilution, 18 hours at 35° C.
  MIC Enterococcus faecalis (GC 2691): 0.5 µg/mL (≈ 0.347 µM)
[3]; Enterococcus faecalis (GC 3059); broth dilution, 18 hours at 35° C.
  MIC Enterococcus faecalis (GC 3059): 0.5 µg/mL (≈ 0.347 µM)
[3]; [10]
  MIC Enterococcus faecalis (GC 4552): 0.5 to 1 µg/mL
[3]; [11]
  MIC Enterococcus faecalis (GC 4553): 0.5 to 1 µg/mL
[3]; [12]
  MIC Enterococcus faecalis (GC 4554): 0.5 to 1 µg/mL
[3]; Enterococcus faecalis (GC 6189); broth dilution, 18 hours at 35° C.
  MIC Enterococcus faecalis (GC 6189): 0.5 µg/mL (≈ 0.347 µM)
[3]; [13]
  MIC Enterococcus faecium (GC 2243): 1 to 2 µg/mL
[3]; [14]
  MIC Enterococcus faecium (GC 4556): 2 µg/mL (≈ 1.39 µM)
[3]; [15]
  MIC Enterococcus faecium (GC 4557): 1 to 2 µg/mL
[3]; strain ATCC 29212; broth dilution, 18 hours at 35° C.
  MIC Enterococcus faecalis (ATCC 29212): 0.5 to 2 µg/mL
[3]; strain GC 2242; broth dilution, 18 hours at 35° C.
  MIC Enterococcus faecalis (GC 2242): 0.5 to 1 µg/mL
[3]; strain GC 2243; broth dilution, 18 hours at 35° C.
  MIC Enterococcus faecium (GC 2243): 1 to 2 µg/mL
[3]; strain GC 2691; broth dilution, 18 hours at 35° C.
  MIC Enterococcus faecalis (GC 2691): 0.5 µg/mL (≈ 0.347 µM)
[3]; strain GC 3059; broth dilution, 18 hours at 35° C.
  MIC Enterococcus faecalis (GC 3059): 0.5 µg/mL (≈ 0.347 µM)
[3]; strain GC 4552; broth dilution, 18 hours at 35° C.
  MIC Enterococcus faecalis (GC 4552): 0.5 to 1 µg/mL
[3]; strain GC 4553; broth dilution, 18 hours at 35° C.
  MIC Enterococcus faecalis (GC 4553): 0.5 to 1 µg/mL
[3]; strain GC 4554; broth dilution, 18 hours at 35° C.
  MIC Enterococcus faecalis (GC 4554): 0.5 to 1 µg/mL
[3]; strain GC 4556; broth dilution, 18 hours at 35° C.
  MIC Enterococcus faecium (GC 4556): 2 µg/mL (≈ 1.39 µM)
[3]; strain GC 4557; broth dilution, 18 hours at 35° C.
  MIC Enterococcus faecium (GC 4557): 1 to 2 µg/mL
[3]; strain GC 4558; broth dilution, 18 hours at 35° C.
  MIC Enterococcus avium (GC 4558): 0.5 to 2 µg/mL
[3]; strain GC 6189; broth dilution, 18 hours at 35° C.
  MIC Enterococcus faecalis (GC 6189): 0.5 µg/mL (≈ 0.347 µM)
[4]; strain ATCC 25922, 18 hours at 35° C.
  MIC Escherichia coli (ATCC 25922): 64-64 μg/mL
[4]; strain GC 4559, 18 hours at 35° C.
  MIC Escherichia coli (GC 4559): 64 µg/mL (≈ 44.5 µM)
[4]; strain GC 4560, 18 hours at 35° C.
  MIC Escherichia coli (GC 4560): 0.5 to 2 µg/mL
